Laboratory results taken from US20260184707A1, “PHARMACEUTICAL COMPOUNDS FOR THE TREATMENT OF COMPLEMENT MEDIATED DISORDERS” (ALEXION PHARMACEUTICALS, INC., priority 2022, published 2026).

Target: T1, Human complement C1s enzyme (Homo sapiens, UniProt P09871)
T1 construct: purified from human serum, Complement Technology, Inc; purchased Complement Technology, Inc; host or cells: human serum (plasma-derived native protein)
T1 sequence (P09871 438-688 limits assumed): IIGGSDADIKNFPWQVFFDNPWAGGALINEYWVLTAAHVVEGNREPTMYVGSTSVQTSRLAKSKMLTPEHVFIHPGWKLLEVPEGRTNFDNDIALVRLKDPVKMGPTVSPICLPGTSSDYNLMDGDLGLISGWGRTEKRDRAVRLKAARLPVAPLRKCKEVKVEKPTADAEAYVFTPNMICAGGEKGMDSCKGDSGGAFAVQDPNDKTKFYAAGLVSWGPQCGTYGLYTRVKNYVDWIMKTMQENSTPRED
T1 sequence (P09871 16-437 partner limits assumed): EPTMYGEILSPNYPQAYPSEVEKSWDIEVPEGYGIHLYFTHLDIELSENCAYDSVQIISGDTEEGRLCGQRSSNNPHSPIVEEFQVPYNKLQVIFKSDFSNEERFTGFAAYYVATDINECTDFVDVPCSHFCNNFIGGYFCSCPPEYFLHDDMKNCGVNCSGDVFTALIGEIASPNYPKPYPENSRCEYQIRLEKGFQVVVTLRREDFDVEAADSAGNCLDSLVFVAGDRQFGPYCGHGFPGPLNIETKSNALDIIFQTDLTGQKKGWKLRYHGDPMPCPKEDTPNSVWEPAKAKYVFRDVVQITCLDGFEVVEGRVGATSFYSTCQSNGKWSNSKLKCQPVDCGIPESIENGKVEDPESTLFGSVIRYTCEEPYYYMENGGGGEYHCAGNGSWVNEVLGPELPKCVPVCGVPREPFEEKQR
Test: Human C1s enzyme assay
Type: biochemical
Details: human complement C1s enzyme 1.16 nM, substrate Z-L-Lys-SBzl, A405; read-out: IC50 (Stars)
Method in brief: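 Serum-purified human C1s (1.16 nM final) preincubated 5 min at room temperature with compound in 50 mM Tris, 1 M NaCl, pH 7.5. Z-L-Lys-SBzl and DTNB added at 100 μM each; A405 recorded every 30 s. IC50 from nonlinear regression of reaction rates versus compound concentration.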

SMILES | IC50
O=C(Cn1c(-c2ccccc2)ncc(NC(=O)c2ccc(Oc3ccccc3Cl)cc2)c1=O)NCc1cc2cnccc2[nH]1 [Compound 72, N-(1-(2-(((1H-pyrrolo[3,2-c]pyridin-2-yl)methyl)amino)-2-oxoethyl)-6-oxo-2-phenyl-1,6-dihydropyrimidin-5-yl)-4-(2-chlorophenoxy)benzamide] | < 100 nM
O=C(Cn1c(-c2ccccc2)ncc(NC(=O)c2ccc(C(=O)c3ccccc3)cc2)c1=O)NCc1cc2cnccc2[nH]1 [Compound 73, N-(1-(2-(((1H-pyrrolo[3,2-c]pyridin-2-yl)methyl)amino)-2-oxoethyl)-6-oxo-2-phenyl-1,6-dihydropyrimidin-5-yl)-4-benzoylbenzamide] | < 100 nM
O=C(Cn1c(-c2ccccc2)ncc(NC(=O)c2ccc(Oc3ccccc3)nc2)c1=O)NCc1cc2cnccc2[nH]1 [Compound 74, N-(1-(2-(((1H-pyrrolo[3,2-c]pyridin-2-yl)methyl)amino)-2-oxoethyl)-6-oxo-2-phenyl-1,6-dihydropyrimidin-5-yl)-6-phenoxynicotinamide] | < 100 nM
O=C(Cn1c(-c2ccccc2)ncc(NC(=O)c2ccc(-c3ccsc3)cc2)c1=O)NCc1cc2cnccc2[nH]1 [Compound 75, N-(1-(2-(((1H-pyrrolo[3,2-c]pyridin-2-yl)methyl)amino)-2-oxoethyl)-6-oxo-2-phenyl-1,6-dihydropyrimidin-5-yl)-4-(thiophen-3-yl)benzamide] | < 100 nM
O=C(Cn1c(-c2ccccc2)ncc(NC(=O)NCC2CCCCC2)c1=O)NCc1cc2cnccc2[nH]1 [Compound 76, N-((1H-pyrrolo[3,2-c]pyridine-2-yl)methyl)-2-(5-(3-(cyclohexylmethyl)ureido)-6-oxo-2-phenylpyrimidin-1(6H)-yl)acetamide] | 100 to 1000 nM
O=C(Cn1c(-c2ccccc2)ncc(NCCCc2ccc(C3CC3)cc2)c1=O)NCc1cc2cnccc2[nH]1 [Compound 77, N-((1H-pyrrolo[3,2-c]pyridin-2-yl)methyl)-2-(5-((3-(4-cyclo-propylphenyl)propyl)amino)-6-oxo-2-phenylpyrimidin-1(6H)-yl)acetamide] | < 100 nM
O=C(Cn1c(-c2ccccc2)ncc(NC(=O)c2ccc3c(c2)-c2ccccc2C3(F)F)c1=O)NCc1cc2cnccc2[nH]1 [Compound 78, N-(1-(2-(((1H-pyrrolo[3,2-c]pyridin-2-yl)methyl)amino)-2-oxoethyl)-6-oxo-2-phenyl-1,6-dihydropyrimidin-5-yl)-9,9-difluoro-9H-fluorene-3-carbox-amide] | < 100 nM
O=C(Cn1c(-c2ccccc2)ncc(NC(=O)NCc2ccccc2)c1=O)NCc1cc2cnccc2[nH]1 [Compound 79, N-((1H-pyrrolo[3,2-c]pyridin-2-yl)methyl)-2-(5-(3-benzyl-ureido)-6-oxo-2-phenylpyr-imidin-1(6H)-yl)acetamide] | 100 to 1000 nM
O=C(Cc1cc(NCCCc2ccccc2)ncc1-c1ccccc1)NCc1cc2cnccc2[nH]1 [Compound 80, N-((1H-pyrrolo[3,2-c]pyridine-2-yl)methyl)-2-(5-phenyl-2-((3-phenylpropyl)amino)pyridine-4-yl)acetamide] | > 1000 nM
O=C(Cn1c(-c2ccccc2)ncc(-c2nc3ccc(Oc4ccccc4)cc3[nH]2)c1=O)NCc1cc2cnccc2[nH]1 [Compound 81, N-((1H-pyrrolo[3,2-c]pyridin-2-yl)methyl)-2-(6-oxo-5-(6-phenoxy-1H-benzo[d]imidazol-2-yl)-2-phenylpyrimidin-1(6H)-yl)acetamide] | > 1000 nM
O=C(Cn1c(-c2ccccc2)ncc(-c2nc3ccccc3[nH]2)c1=O)NCc1cc2cnccc2[nH]1 [Compound 82, 2-(5-(1H-benzo[d]pyridine-2-yl)-6-oxo-2-phenylpyrimidin-1(6H)-yl)-N-((1H-pyrrolo[3,2-c]pyridine-2-yl)methyl)acetamide] | > 1000 nM
